Measurements reported in patent publication US20260001841A1, “PREPARATION OF STABLE PSILOCIN SALTS, ESTERS AND CONJUGATES AND USES THEREOF” (LOBE SCIENCES LTD., priority 2022, published 2026).
Several values for one entry are separate records, joined by “and”; a condition that tells them apart may be missing. Equal entries are not always repeated. Entries after “also recorded” stand apart in the source; their conditions may differ.

How the values were obtained:
[1] = psilocin from psilocybin dosing; cited from earlier work
[2] = doses as low as 5 mg psilocybin (about 2 mg psilocin); cited from earlier work
[3] = Stability studies on psilocin mucate capsule (appearance, HPLC assay and impurities, TM-022-0392); format: physicochemical; conditions: for Appearance, Packaging: Labeled, amber glass bottle with white closure containing 15 partially filled white opaque capsules / Appearance, Product: White to light brown powder partially filling white opaque capsules / Total Impurities TM-22-0392 / Impurities TM-22-0392, individual impurities / Assay TM-22-0392 (% Label Claim): capsule; for Assay TM-22-0392 (% Label Claim): specification 90.0-110.0%
Method: Additional stability studies were performed on psilocin mucate (also known as psilocin mucic acid salt or conjugate or psilocin galactaric acid salt or conjugate) capsule.
Appearance was evaluated by viewing of the sample on a watchglass over a black and white background.
Assay conditions for Test/Method TM-022-0392 assessing stability and impurities were as follows: • Mobile phase: MPA: 945 mL water, 5 mL H3PO4, PH to 5.7 with NaOH; MPB: Acetonitrile • Diluent: 80:20 Water:MeOH • Standard: 0.4 mg/mL Psilocin Mucic RS in Diluent • Sample: 0.4 mg/mL Psilocin Mucic API in Diluent HPLC Conditions are depicted in Table 3.
Calculations were against a bracketing external standard.
Identity of psilocin mucate was verified by ultraviolet (UV) assessment, wherein the UV spectrum of the main peak in the standard matched the UV spectrum of the main peak in the sample and by retention time wherein the retention time ratio was 0.98-1.02.

healthy subjects = experiment: Phase one single-dose study of psilocin mucic acid conjugate capsules: psychiatrist mood assessment and mini mental state examination (MMSE); conditions: single oral capsule, 4.05 mg conjugate equivalent to 2 mg psilocin

Compound	Estimated dose-normalized bioavailability [1]	Adverse psychological effects reported [2]	Time demonstrated to be stable [3]	Appearance, Packaging: Labeled, amber glass bottle with white closure containing 15 partially filled white opaque capsules ([3]; 7 Months)	Appearance, Product: White to light brown powder partially filling white opaque capsules ([3]; 7 Months)	Total Impurities TM-22-0392 ([3]; 7 Months)	Impurities TM-22-0392, individual impurities ([3]; 7 Months, all impurities)	Assay TM-22-0392 (% Label Claim) ([3]; 7 Months)	Appearance, Packaging: Labeled, amber glass bottle with white closure containing 15 partially filled white opaque capsules ([3]; Initial)	Appearance, Product: White to light brown powder partially filling white opaque capsules ([3]; Initial)	Total Impurities TM-22-0392 ([3]; Initial)	Impurities TM-22-0392, individual impurities ([3]; Initial, impurity at RRT1.12)	Assay TM-22-0392 (% Label Claim) ([3]; Initial)	FEELING STATUS (mood assessed by psychiatrist) (healthy subjects; one entry per subject (01-10))	MMSE score (healthy subjects; one value per subject (01-10), scores expected below 25 with a hallucinogenic substance)
CN(C)CCc1c[nH]c2cccc(OP(=O)(O)O)c12 [psilocybin, Psilocybin]	52.7%	hallucinogenic effects coupled with increased anxiety													
psilocin mucate			at least 7 months	Conforms	Conforms	<0.05%	All <0.05%	101.7%	Conforms	Conforms	0.08%	RRT1.12/0.08%	100.8%	Feel calm, less thoughts, happier mood; also recorded: Euphoric, better mood, it helps with life stress; also recorded: Euphories, better mood, sleepy, feel time is slower; also recorded: Sleepy, better thoughts, less worried in general; also recorded: Did not feel change in mood but feeling cold extremities; also recorded: More relaxed, want to drink sweet tea, better mood; also recorded: Better mood, feels hyper sexual; also recorded: Felt high mood, now they feel in good way,, they would love to; also recorded: Less anxious, better mood, increase their appetite; also recorded: Feel little beet happier, better energy	28 (3×) and 27 (2×) and 30 (3×) and 29 (2×)
